Results reported in patent publication US20260027083A1, “USE OF PPAR AGONIST FOR IMPROVEMENT OF ENERGY METABOLISM” (NOVMETAPHARMA CO., LTD., priority 2022, published 2026).

Experiments:
[1] = biological target: T1, His-tagged recombinant human PPARβ/δ ligand binding domain (Homo sapiens, UniProt Q03181); assay: CNBr-bead conjugation (pull-down) assay, hPPARβ/δ-LBD; settings: CNBr-coupled drug, positive control GW501516, FIG. 2
T1 construct: made in house; host or cells: E. coli (DE3, Rosetta)
T1 sequence (Q03181 211-439 limits assumed): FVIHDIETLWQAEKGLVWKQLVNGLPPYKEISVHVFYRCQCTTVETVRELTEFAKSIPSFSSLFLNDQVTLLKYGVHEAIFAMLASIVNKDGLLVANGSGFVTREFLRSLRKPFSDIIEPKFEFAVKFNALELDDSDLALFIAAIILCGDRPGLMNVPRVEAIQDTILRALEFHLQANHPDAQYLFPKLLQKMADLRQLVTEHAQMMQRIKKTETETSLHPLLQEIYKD
Method: (§1) A compound of the present invention represented by Chemical Formula 1 was synthesized by DAEJUNG Chemicals & Metals (Gyeonggi-do, Korea) (indicated as ‘D6’ in the drawing). WY14643, GW501516, and rosiglitazone were purchased from Sigma-Aldrich (St. Louis, MO, USA). The compounds were dissolved in dimethyl sulfoxide (DMSO), diluted in a culture solution, and used in the experiment. Cyanogen bromide (CNBr)-activated Sepharose 4B was purchased from Sigma-Aldrich (St. Louis, MO, USA). His-tagged recombinant human PPAR-ligand binding domain (LBD) was expressed in E. coli (DE3, Rosetta) and then purified and used. A His antibody was purchased from Cell Signaling Technology (Danvers, Massachusetts, USA). 3-Isobutyl-1-methylxanthine (IBMX), dexamethasone, bovine pancreatic insulin, and Oil Red O were purchased from Sigma-Aldrich (St. Louis, MO, USA). A PRO-PREP™ Protein Extraction Solution was purchased from iNtRON Biotechnology (iNtRON Biotech., Korea). […]
(§2) 100 mg of CNBr-activated Sepharose 4B was added to an e-tube, and then the beads were activated by rotating with 1 ml of 1 mM HCl for 10 minutes at room temperature. […] Each e-tube was added with the drug and rotated overnight at 4° C., at which time the concentration was measured to be 20 μM. […] The supernatant was completely removed, and the pellet was detected by Western blotting. […]

high-fat diet mice = assay: Intraperitoneal insulin tolerance test (IP-ITT) in high-fat diet mice; type: in vivo, C57BL/6J mice; settings: 5 mg/kg/day oral, 60% HFD, insulin 0.75 U/kg i.p. after 3 h fasting, FIG. 11
Method: The care and use of experimental animals were carried out with the approval of the Institutional Animal Care and Use Committee of Pohang University of Science and Technology. C57BL/6J mice were purchased from Japan SLC, Inc. 50 four-week-old male C57/BL/6J mice were acclimated for 2 weeks. The mice were randomly divided and orally administered with vehicle or 5 mg/kg/day of D6 or WY14643 for 13 weeks (oral gavage), and obesity was induced by a 60% high-fat diet (#D12492, Research diets, NJ, USA). Body weights and food intakes were measured weekly from 6 weeks of age, and after 16 weeks of age, adipose tissue and muscle volumes were measured using a Trimodality imaging system.
An insulin tolerance test (ITT) was performed on mice after 17 weeks of age after fasting for 3 hours and intraperitoneal insulin administration at 0.75 U/kg body weight. The blood glucose levels were measured at 0, 15, 30, 45, 60 and 90 minutes after tail vein injection.
To confirm a metabolic disease inhibitory effect of the compound represented by Chemical Formula 1 through animal experiments, mice were acclimated for 2 weeks, and then obesity was induced by feeding a 60% high fat diet (HFD) and orally administered with vehicle or 5 mg/kg/day of the compound represented by Chemical Formula 1 (D6) or WY14643 for 13 weeks. […]

[2] = biological target: T2, His-tagged recombinant human PPARα ligand binding domain (Homo sapiens, UniProt Q07869); assay: CNBr-bead conjugation (pull-down) assay, hPPARα-LBD; settings: CNBr-coupled drug, positive control WY14643, FIG. 2
T2 construct: made in house; host or cells: E. coli (DE3, Rosetta)
T2 sequence (Q07869 239-466 limits assumed): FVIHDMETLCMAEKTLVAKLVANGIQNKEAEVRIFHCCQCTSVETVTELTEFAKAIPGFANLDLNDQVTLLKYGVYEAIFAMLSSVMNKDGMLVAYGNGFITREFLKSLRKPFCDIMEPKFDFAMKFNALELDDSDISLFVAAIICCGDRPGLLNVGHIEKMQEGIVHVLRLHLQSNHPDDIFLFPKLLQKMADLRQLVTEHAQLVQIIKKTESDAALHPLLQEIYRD
Method: as §1, §2

What does the source list for `COc1ccc(-c2cc(=O)oc3c(C)c(OC(=O)[C@H](Cc4c[nH]c5ccccc45)NC(=O)OC(C)(C)C)ccc23)cc1` [Chemical Formula 1, [4-(4-methoxyphenyl)-8-methyl-2-oxochromen-7-yl] (2S)-3-(1H-indol-3-yl)-2-[(2-methylpropan-2-yl)oxycarbonylamino]propanoate]?
conjugation (binding) to hPPARβ/δ-LBD, Western blotting [1]: as much potently as a PPAR agonist used as a positive control; insulin resistance (IP-ITT) (high-fat diet mice): improved; conjugation (binding) to hPPARα-LBD, Western blotting [2]: as much potently as a PPAR agonist used as a positive control
